Source: paper PMC6964667 (2020)

Columns and labels:
[1] = tested on: D1' (DNA, hairpin) CATTGTTAGCCTTTTTGGCTAACAATG; assay: CD titration (ICD); details: 10 mM KCl, 10 mM MgCl2, 5 mM CaCl2, 10 μM DNA
[2] = tested on: D1 (DNA, hairpin) CATTGTCAGCCTTTTTGGCTGACAATG; assay: CD titration (ICD); details: 10 mM KCl, 10 mM MgCl2, 5 mM CaCl2, 10 μM DNA
[3] = tested on: D2 (DNA, hairpin) CATTGTTAGACTTTTTGTCTAACAATG; assay: CD titration (ICD); details: 10 mM KCl, 10 mM MgCl2, 5 mM CaCl2, 10 μM DNA
[4] = tested on: D2' (DNA, hairpin) CATTGTCAGACTTTTTGTCTGACAATG; assay: CD titration (ICD); details: 10 mM KCl, 10 mM MgCl2, 5 mM CaCl2, 10 μM DNA
[5] = tested on: D2' (DNA, hairpin) CATTGTCAGACTTTTTGTCTGACAATG; assay: CD/UV melting at 260 nm; details: 10 mM KCl, 10 mM MgCl2, 5 mM CaCl2; sodium dimethyl arsinate pH 6.9, 6% DMSO; 3.6 equiv compound, 8.87 μM DNA
[6] = tested on: D2 (DNA, hairpin) CATTGTTAGACTTTTTGTCTAACAATG; assay: CD/UV melting at 260 nm; details: 10 mM KCl, 10 mM MgCl2, 5 mM CaCl2; sodium dimethyl arsinate pH 6.9, 6% DMSO; 3.9 equiv compound, 8.87 μM DNA
[7] = tested on: D3' (DNA, hairpin) CATTGTTATGCCTTTTTGGCATAACAATG; assay: CD titration (ICD); details: 10 mM KCl, 10 mM MgCl2, 5 mM CaCl2, 10 μM DNA
[8] = tested on: D3 (DNA, hairpin) CATTGTCATGCCTTTTTGGCATGACAATG; assay: CD titration (ICD); details: 10 mM KCl, 10 mM MgCl2, 5 mM CaCl2, 10 μM DNA
[9] = tested on: D3' (DNA, hairpin) CATTGTTATGCCTTTTTGGCATAACAATG; assay: CD/UV melting at 260 nm; details: 10 mM KCl, 10 mM MgCl2, 5 mM CaCl2; sodium dimethyl arsinate pH 6.9, 6% DMSO; 3.7 equiv compound, 8.87 μM DNA
[10] = tested on: D3 (DNA, hairpin) CATTGTCATGCCTTTTTGGCATGACAATG; assay: CD/UV melting at 260 nm; details: 10 mM KCl, 10 mM MgCl2, 5 mM CaCl2; sodium dimethyl arsinate pH 6.9, 6% DMSO; 3.3 equiv compound, 8.87 μM DNA
[11] = tested on: D1' (DNA, hairpin) CATTGTTAGCCTTTTTGGCTAACAATG; assay: CD/UV melting at 260 nm; details: 10 mM KCl, 10 mM MgCl2, 5 mM CaCl2; sodium dimethyl arsinate pH 6.9, 6% DMSO; 3.3 equiv compound, 8.87 μM DNA
[12] = tested on: D1 (DNA, hairpin) CATTGTCAGCCTTTTTGGCTGACAATG; assay: CD/UV melting at 260 nm; details: 10 mM KCl, 10 mM MgCl2, 5 mM CaCl2; sodium dimethyl arsinate pH 6.9, 6% DMSO; 3.3 equiv compound, 8.87 μM DNA
[13] = 10 mM sodium dimethyl arsinate pH 6.9, 20 °C, up to 4.8 equiv, no ICD
[14] = 10 mM sodium dimethyl arsinate pH 6.9, up to 6% DMSO, 20 °C, saturation not reached
[15] = 10 mM sodium dimethyl arsinate pH 6.9, up to 6% DMSO, 20 °C

Question: For `CN(C)CCCNC(=O)CCNC(=O)c1cc(NC(=O)c2cc(NC(=O)c3nc(NC(=O)Cc4cccc(/N=N/c5cccc(CNC(=O)c6cc(NC(=O)c7cc(NC(=O)c8nccn8C)cn7C)cn6C)c5)c4)cn3C)cn2C)cn1C`, which binding [1, 13] is on record?
Answer: no

Question: And the binding [2, 13]?
Answer: no

Question: With `CN(C)CCCNC(=O)CCNC(=O)c1cc(NC(=O)c2cc(NC(=O)c3cc(NC(=O)Cc4cccc(/N=N\c5cccc(CNC(=O)c6cc(NC(=O)c7cc(NC(=O)c8nccn8C)cn7C)cn6C)c5)c4)cn3C)cn2C)cn1C` as the compound, how does the KD [3, 14] read?
Answer: 52.3 ± 21.0 µM

Question: What about the KD [4, 15] of the same compound?
Answer: 42.2 ± 6.3 µM

Question: What about the ΔTm [5] of the same compound?
Answer: 1.4 K

Question: And the ΔTm [6]?
Answer: 2.0 K

Question: Which binding [7, 13] does the source give for `CN(C)CCCNC(=O)CCNC(=O)c1cc(NC(=O)c2cc(NC(=O)c3nc(NC(=O)c4cc(NC(=O)Cc5cccc(/N=N/c6cccc(CNC(=O)c7cc(NC(=O)c8cc(NC(=O)c9cc(NC(=O)c%10nccn%10C)cn9C)cn8C)cn7C)c6)c5)cn4C)cn3C)cn2C)cn1C` here?
Answer: no

Question: And the binding [8, 13]?
Answer: no

Question: What does the source list for `CN(C)CCCNC(=O)CCNC(=O)c1cc(NC(=O)c2cc(NC(=O)c3nc(NC(=O)c4cc(NC(=O)Cc5cccc(/N=N\c6cccc(CNC(=O)c7cc(NC(=O)c8cc(NC(=O)c9cc(NC(=O)c%10nccn%10C)cn9C)cn8C)cn7C)c6)c5)cn4C)cn3C)cn2C)cn1C`?
Answer: KD [7, 14]: 52.9 ± 29.6 µM; ΔTm [9]: 0.4 K; KD [8, 15]: 21.3 ± 11.2 µM; ΔTm [10]: 3.5 K

Question: `CN(C)CCCNC(=O)CCNC(=O)c1cc(NC(=O)c2cc(NC(=O)c3cc(NC(=O)Cc4cccc(/N=N/c5cccc(CNC(=O)c6cc(NC(=O)c7cc(NC(=O)c8nccn8C)cn7C)cn6C)c5)c4)cn3C)cn2C)cn1C` was tested. Which binding [3, 13] did it give?
Answer: no

Question: What about the binding [4, 13] of the same compound?
Answer: no

Question: `CN(C)CCCNC(=O)CCNC(=O)c1cc(NC(=O)c2cc(NC(=O)c3nc(NC(=O)Cc4cccc(/N=N\c5cccc(CNC(=O)c6cc(NC(=O)c7cc(NC(=O)c8nccn8C)cn7C)cn6C)c5)c4)cn3C)cn2C)cn1C` was tested. Which ΔTm [11] did it give?
Answer: 2.1 K

Question: And the KD [1, 15]?
Answer: 13.2 ± 7.8 µM

Question: What about the KD [2, 15] of the same compound?
Answer: 11.8 ± 6.0 µM

Question: And the ΔTm [12]?
Answer: 3.5 K
